In PubChem BioAssay (NCI):
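Five compound concentrations were applied to cells in 96-well plates for 48 hours; endpoints were derived by simple linear interpolation of the resulting dose-response curve. At the GI50, growth is halved. TGI marks complete inhibition of growth.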

How the values were obtained:
Assay in all cases: DTP human tumour cell line panel, 48 h
HL-60(TB) leukemia = system: HL-60(TB) leukemia
NCI-H226 lung = system: NCI-H226 lung
NCI-H522 lung = system: NCI-H522 lung
UACC-257 melanoma = system: UACC-257 melanoma
MDA-MB-435 = system: MDA-MB-435
HCT-15 colon = system: HCT-15 colon
SF-539 CNS = system: SF-539 CNS
HT29 colon = system: HT29 colon
CAKI-1 renal = system: CAKI-1 renal
SW-620 colon = system: SW-620 colon
SR leukemia = system: SR leukemia
NCI/ADR-RES ovarian = system: NCI/ADR-RES ovarian
SK-OV-3 ovarian = system: SK-OV-3 ovarian
ACHN renal = system: ACHN renal
MCF7 breast = system: MCF7 breast
OVCAR-3 ovarian = system: OVCAR-3 ovarian
BT-549 breast = system: BT-549 breast
NCI-H460 lung = system: NCI-H460 lung
OVCAR-8 ovarian = system: OVCAR-8 ovarian
SF-295 CNS = system: SF-295 CNS
CCRF-CEM leukemia = system: CCRF-CEM leukemia
SK-MEL-2 melanoma = system: SK-MEL-2 melanoma
HCC-2998 colon = system: HCC-2998 colon
SN12C renal = system: SN12C renal
K-562 leukemia = system: K-562 leukemia
A498 renal = system: A498 renal
SK-MEL-28 melanoma = system: SK-MEL-28 melanoma
786-0 renal = system: 786-0 renal
PC-3 prostate = system: PC-3 prostate

## CN(CCCN)CCCNc1nc2ccccc2c2[nH]c3ccccc3c12
HL-60(TB) leukemia
  GI50: 138 nM
  TGI: 590 nM
NCI-H226 lung
  GI50: 297 nM
  TGI: 997 nM
NCI-H522 lung
  GI50: 61.3 nM
  TGI: 215 nM
UACC-257 melanoma
  GI50: 1770 nM
  TGI: 3490 nM
MDA-MB-435
  GI50: 281 nM
  TGI: 816 nM
HCT-15 colon
  GI50: 446 nM
  TGI: 9680 nM
SF-539 CNS
  GI50: 324 nM
  TGI: 943 nM
HT29 colon
  GI50: 193 nM
  TGI: 951 nM
CAKI-1 renal
  GI50: 259 nM
  TGI: 754 nM
SW-620 colon
  GI50: 315 nM
  TGI: 1640 nM
SR leukemia
  GI50: 381 nM
  TGI: 2250 nM
NCI/ADR-RES ovarian
  GI50: 1480 nM
  TGI: 10800 nM
SK-OV-3 ovarian
  GI50: 2070 nM
  TGI: 7290 nM
ACHN renal
  GI50: 409 nM
  TGI: 4450 nM
MCF7 breast
  GI50: 245 nM
  TGI: 1030 nM
OVCAR-3 ovarian
  GI50: 359 nM
  TGI: 1350 nM
BT-549 breast
  GI50: 924 nM
  TGI: 2150 nM
NCI-H460 lung
  GI50: 304 nM
  TGI: 1170 nM
OVCAR-8 ovarian
  GI50: 82.5 nM
  TGI: 496 nM
SF-295 CNS
  GI50: 224 nM
  TGI: 738 nM
CCRF-CEM leukemia
  GI50: 173 nM
  TGI: 1580 nM
SK-MEL-2 melanoma
  GI50: 306 nM
  TGI: 835 nM
HCC-2998 colon
  GI50: 113 nM
  TGI: 271 nM
SN12C renal
  GI50: 119 nM
  TGI: 606 nM
K-562 leukemia
  GI50: 63.8 nM
  TGI: 346 nM
A498 renal
  GI50: 1610 nM
  TGI: 3080 nM
SK-MEL-28 melanoma
  GI50: 342 nM
  TGI: 1170 nM
786-0 renal
  GI50: 169 nM
  TGI: 853 nM
PC-3 prostate
  GI50: 342 nM
